{"source": "patent EP4562004B1", "about": "“NOVEL 7-SUBSTITUTED INDOLE SULFONAMIDE DERIVATIVES” (F. Hoffmann-La Roche AG, priority 2022, dated 2024)", "biological_target": "human GPR17 short isoform (Homo sapiens, UniProt Q13304)", "sequence (Q13304 29-367)": "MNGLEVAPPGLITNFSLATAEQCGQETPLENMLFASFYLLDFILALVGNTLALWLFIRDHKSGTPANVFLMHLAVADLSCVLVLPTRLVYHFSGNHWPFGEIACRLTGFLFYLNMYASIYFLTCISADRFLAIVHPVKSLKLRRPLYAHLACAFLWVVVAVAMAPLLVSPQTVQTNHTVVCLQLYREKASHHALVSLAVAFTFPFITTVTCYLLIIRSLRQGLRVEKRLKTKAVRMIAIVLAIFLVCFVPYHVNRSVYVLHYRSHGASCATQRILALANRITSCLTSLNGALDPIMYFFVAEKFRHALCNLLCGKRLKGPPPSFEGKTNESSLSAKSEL", "test": "GPR17 cAMP assay (antagonist mode, TR-FRET cAMP detection)", "format": "cell-based", "settings": "CHO-K1 cells stably expressing human GPR17 short isoform; with EC80 concentration of agonist MDL29,951, IBMX 0.5mM, forskolin 15µM; normalized to reference antagonist; read-out: hGPR17 cAMP IC50", "protocol": "CHO-K1 cells stably expressing vector containing untagged human GPR17 short isoform (Roche) were cultured at 37°C / 5% CO2 in DMEM (Dulbecco's Modified Eagle Medium):F-12 (1:1) supplemented with 10% foetal bovine serum and 400 µg/ml Geneticin.\nChanges in intracellular cyclic adenosine monophosphate (cAMP) levels were quantified using the Nano-TRF Detection Assay kit (Roche Diagnostics, Cat. No. 05214386001). This assay allows for direct cAMP quantification in a homogeneous solution. cAMP is detected based on time-resolved fluorescence energy transfer (TR-FRET) and competitive binding of ruthenylated cAMP and endogenous cAMP to an anti-cAMP monoclonal antibody labeled with AlexaFluor-700. The Ruthenium complex serves as the FRET donor and transfers energy to AlexaFluor-700. The FRET signal is inversely proportional to the cAMP concentration.\nCHO-GPR17S cells were detached with Accutase and resuspended in assay buffer consisting of Hank's Balanced Salt Solution (HBSS), 10mM HEPES (4-(2-hydroxyethyl) piperazine-1-ethanesulfonic acid solution) and 0.1% bovine serum albumin (pH 7.4). The cells were seeded in black 384-well plates (Corning) at a density of 10'000 cells / 20µl assay buffer until the addition of compounds.\nTest antagonist compounds were serially diluted in dimethyl sulfoxide (DMSO) and spotted in 384-well plates. The compounds were then diluted in HBSS buffer supplemented with an EC80 concentration of MDL29,951 (3-(2-Carboxy-4,6-dichloroindol-3-yl)propionic acid) (GPR17 agonist) plus 3-Isobutyl-1-methylxanthine (IBMX) (0.5mM final concentration) and added to the cells at room temperature. Forskolin (15µM final concentration) was added 5 minutes after the test compounds and the cells were incubated at room temperature for 30 minutes. The assay was stopped by adding cAMP detection mix (containing detergents for cell lysis) for 90 minutes at room temperature.\nCellular cAMP was measured using a Paradigm reader (Molecular Devices). The raw data was used to calculate the FRET signal based on the assay's P-factor as per cAMP kit instructions. The data was normalized to the maximal activity of a reference antagonist and dose response curves were fitted to the percent activity of the test compounds using a sigmoidal dose response model (Genedata Screener).\nResults in the hGPR17 cAMP assay are provided for compounds of formula I in Table 1 Table 1: […]"}
{"smiles": "COc1nc(NS(=O)(=O)c2c[nH]c3c(-n4nccn4)cccc23)nc(OC)c1OCC(F)F", "note": "[Example 20, N-[5-(2,2-difluoroethoxy)-4,6-dimethoxy-pyrimidin-2-yl]-7-(triazol-2-yl)-1H-indole-3-sulfonamide]", "values": [{"measurement": "IC50", "value": 447, "unit": "nM"}]}
{"smiles": "COc1nc(NS(=O)(=O)c2c[nH]c3c(-n4nccn4)c(C)ccc23)nc(OC)c1OCC(F)F", "note": "[Example 25, N-[5-(2,2-difluoroethoxy)-4,6-dimethoxy-pyrimidin-2-yl]-6-methyl-7-(triazol-2-yl)-1H-indole-3-sulfonamide]", "values": [{"measurement": "IC50", "value": 34, "unit": "nM"}]}
{"smiles": "COc1nc(NS(=O)(=O)c2c[nH]c3c(-n4nccn4)cccc23)nc(OC)c1OCCF", "note": "[Example 19, N-[5-(2-fluoroethoxy)-4,6-dimethoxy-pyrimidin-2-yl]-7-(triazol-2-yl)-1H-indole-3-sulfonamide]", "values": [{"measurement": "IC50", "value": 316, "unit": "nM"}]}
{"smiles": "COc1nc(NS(=O)(=O)c2c[nH]c3c(-n4cccn4)c(Cl)ccc23)nc(OC)c1CC(F)F", "note": "[Example 4, 6-chloro-N-[5-(2,2-difluoroethyl)-4,6-dimethoxy-pyrimidin-2-yl]-7-pyrazol-1-yl-1H-indole-3-sulfonamide]", "values": [{"measurement": "IC50", "value": 22, "unit": "nM"}]}
{"smiles": "COc1nc(NS(=O)(=O)c2c[nH]c3c(-n4ncc(C)n4)c(Cl)ccc23)nc(OC)c1OCC(F)F", "note": "[Example 38, 6-chloro-N-[5-(2,2-difluoroethoxy)-4,6-dimethoxy-pyrimidin-2-yl]-7-(4-methyltriazol-2-yl)-1H-indole-3-sulfonamide]", "values": [{"measurement": "IC50", "value": 34, "unit": "nM"}]}
{"smiles": "[2H]C([2H])(F)C([2H])([2H])Oc1c(OC)nc(NS(=O)(=O)c2c[nH]c3c(-n4cccn4)c(Cl)ccc23)nc1OC", "note": "[Example 68, 6-chloro-N-[4,6-dimethoxy-5-(1,1,2,2-tetradeuterio-2-fluoro-ethoxy)pyrimidin-2-yl]-7-pyrazol-1-yl-1H-indole-3-sulfonamide]", "values": [{"measurement": "IC50", "value": 36, "unit": "nM"}]}
{"smiles": "COc1nc(NS(=O)(=O)c2c[nH]c3c(-n4cccn4)c(Cl)ccc23)ncc1CC(F)F", "note": "[Example 71, 6-chloro-N-[5-(2,2-difluoroethyl)-4-methoxy-pyrimidin-2-yl]-7-pyrazol-1-yl-1H-indole-3-sulfonamide]", "values": [{"measurement": "IC50", "value": 63, "unit": "nM"}]}
{"smiles": "COc1nc(NS(=O)(=O)c2c[nH]c3c(-n4nccn4)c(F)ccc23)nc(OC)c1OCC(F)F", "note": "[Example 35, N-[5-(2,2-difluoroethoxy)-4,6-dimethoxy-pyrimidin-2-yl]-6-fluoro-7-(triazol-2-yl)-1H-indole-3-sulfonamide]", "values": [{"measurement": "IC50", "value": 126, "unit": "nM"}]}
{"smiles": "COc1nc(NS(=O)(=O)c2c[nH]c3c(-n4nccn4)c(Cl)ccc23)nc(OC)c1CCC(F)F", "note": "[Example 17, 6-chloro-N-[5-(3,3-difluoropropyl)-4,6-dimethoxy-pyrimidin-2-yl]-7-(triazol-2-yl)-1H-indole-3-sulfonamide]", "values": [{"measurement": "IC50", "value": 24, "unit": "nM"}]}
{"smiles": "COc1nc(NS(=O)(=O)c2c[nH]c3c(-n4cccn4)c(Cl)ccc23)nc(OC)c1OCCF", "note": "[Example 67, 6-chloro-N-[5-(2-fluoroethoxy)-4,6-dimethoxy-pyrimidin-2-yl]-7-pyrazol-1-yl-1H-indole-3-sulfonamide]", "values": [{"measurement": "IC50", "value": 31, "unit": "nM"}]}
{"smiles": "COc1nc(NS(=O)(=O)c2c[nH]c3c(-n4nccn4)c(C)ccc23)nc(OC)c1OCCF", "note": "[Example 23, N-[5-(2-fluoroethoxy)-4,6-dimethoxy-pyrimidin-2-yl]-6-methyl-7-(triazol-2-yl)-1H-indole-3-sulfonamide]", "values": [{"measurement": "IC50", "value": 35, "unit": "nM"}]}
{"smiles": "[2H]C([2H])(c1cnc(NS(=O)(=O)c2c[nH]c3c(-n4cccn4)c(Cl)ccc23)nc1OC)C(F)F", "note": "[Example 72, 6-chloro-N-[5-(1,1-dideuterio-2,2-difluoroethyl)-4-methoxy-pyrimidin-2-yl]-7-pyrazol-1-yl-1H-indole-3-sulfonamide]", "values": [{"measurement": "IC50", "value": 41, "unit": "nM"}]}
{"smiles": "COc1nc(NS(=O)(=O)c2c[nH]c3c(-n4nccn4)c(Cl)ccc23)nc(OC)c1OC(F)(F)CF", "note": "[Example 57, 6-chloro-N-[4,6-dimethoxy-5-(1,1,2-trifluoroethoxy)pyrimidin-2-yl]-7-(triazol-2-yl)-1H-indole-3-sulfonamide]", "values": [{"measurement": "IC50", "value": 85, "unit": "nM"}]}
